In patent US20040176349A1, “Antibacterial composition” (priority 2001, published 2004):

How the values were obtained:
[1] = test system: enterococci; assay: Checkerboard study, synergy summary of Example 2; assay type: cell-based, Enterococcus; details: in words
From the text: (§1) The aim of the study was to detect any synergy between PFOB and the other antibiotics. For the purposes of the study, synergy was defined in accordance with the FIC (fractional inhibitory concentration) index, as disclosed by Lorian (1991, In “Antibiotics in Laboratory Medicine” 3rd edition, Eds. Williams & Wilkins; esp. p 434-443). In essence, if the combination of test compounds gives at least a 4-fold reduction in the FIC value for each compound, then a synergy may be considered to exist (i.e. FIC of the combination <0.5=synergy; FIC 0.5-2.0=“indifference”; and FIC >2=antagonism).

[2] = test system: E.faecalis 78097 (van B); assay: Checkerboard microdilution MIC with PFOB, Table 2; assay type: cell-based
From the text: as §1
(§2) In Table 2, results in the checkerboard indicating synergy are hatched, and specific optimum synergistic combinations are boxed.

[3] = test system: E. faecalis ATCC 29212; assay: Checkerboard microdilution MIC with PFOB, Table 2; assay type: cell-based
From the text: as §1, §2

[4] = test system: E. faecalis 5659 (vanA); assay: Checkerboard microdilution MIC with PFOB, Table 2; assay type: cell-based
From the text: as §1, §2

[5] = test system: E. faecalis ATCC 10541; assay: Checkerboard microdilution MIC with PFOB, Table 2; assay type: cell-based
From the text: The aim of the study was to detect any synergy between PFOB and the other antibiotics. For the purposes of the study, synergy was defined in accordance with the FIC (fractional inhibitory concentration) index, as disclosed by Lorian (1991, In “Antibiotics in Laboratory Medicine” 3rd edition, Eds. Williams & Wilkins; esp. p 434-443).

[6] = Enterococcus faecalis, read-out: MIC (alone) of Partner

## CN[C@H](CC(C)C)C(=O)N[C@H]1C(=O)N[C@@H](CC(N)=O)C(=O)N[C@H]2C(=O)N[C@H]3C(=O)N[C@H](C(=O)N[C@H](C(=O)O)c4cc(O)cc(O)c4-c4cc3ccc4O)[C@H](O)c3ccc(c(Cl)c3)Oc3cc2cc(c3O[C@@H]2O[C@H](CO)[C@@H](O)[C@H](O)[C@H]2O[C@H]2C[C@](C)(N)[C@H](O)[C@H](C)O2)Oc2ccc(cc2Cl)[C@H]1O [Vancomycin, vancomycin]
[1]
  synergy with PFOB: less marked, but still significant, synergy
[2]; E.faecalis 78097 (van B), FIC index of PFOB + labelled partner, <0.5 = synergy
  Synergy FIC: 0.375
[2]; E.faecalis 78097 (van B), PFOB 0.5 mg/L
  MIC of partner antibiotic in the presence of PFOB at 0.5 mg/L: 64 µg/mL
[2]; E.faecalis 78097 (van B), PFOB 1 mg/L
  MIC of partner antibiotic in the presence of PFOB at 1 mg/L: 64 µg/mL
[2]; E.faecalis 78097 (van B), PFOB 2 mg/L
  MIC of partner antibiotic in the presence of PFOB at 2 mg/L: 64 µg/mL
[2]; E.faecalis 78097 (van B), PFOB 4 mg/L
  MIC of partner antibiotic in the presence of PFOB at 4 mg/L: 64 µg/mL
[2]; E.faecalis 78097 (van B), PFOB 8 mg/L
  MIC of partner antibiotic in the presence of PFOB at 8 mg/L: 64 µg/mL
[2]; E.faecalis 78097 (van B), PFOB 16 mg/L
  MIC of partner antibiotic in the presence of PFOB at 16 mg/L: 32 µg/mL
[2]; E.faecalis 78097 (van B), PFOB 32 mg/L
  MIC of partner antibiotic in the presence of PFOB at 32 mg/L: 16 µg/mL
[2]; E.faecalis 78097 (van B), optimum synergistic combination with PFOB, second figure (partner)
  MIC of PFOB & Partner: Partner concentration: 32 µg/mL
[2]; [6]
  MIC: > 64 µg/mL
[3]; E. faecalis ATCC 29212, FIC index of PFOB + labelled partner, <0.5 = synergy
  Synergy FIC: 0.31
[3]; E. faecalis ATCC 29212, PFOB 0.5 mg/L
  MIC of partner antibiotic in the presence of PFOB at 0.5 mg/L: 4 µg/mL
[3]; E. faecalis ATCC 29212, PFOB 1 mg/L
  MIC of partner antibiotic in the presence of PFOB at 1 mg/L: 2 µg/mL
[3]; E. faecalis ATCC 29212, PFOB 2 mg/L
  MIC of partner antibiotic in the presence of PFOB at 2 mg/L: 2 µg/mL
[3]; E. faecalis ATCC 29212, PFOB 4 mg/L
  MIC of partner antibiotic in the presence of PFOB at 4 mg/L: 2 µg/mL
[3]; E. faecalis ATCC 29212, PFOB 8 mg/L
  MIC of partner antibiotic in the presence of PFOB at 8 mg/L: 2 µg/mL
[3]; E. faecalis ATCC 29212, PFOB 16 mg/L
  MIC of partner antibiotic in the presence of PFOB at 16 mg/L: 1 µg/mL
[3]; E. faecalis ATCC 29212, PFOB 32 mg/L
  MIC of partner antibiotic in the presence of PFOB at 32 mg/L: 1 µg/mL
[3]; E. faecalis ATCC 29212, optimum synergistic combination with PFOB, second figure (partner)
  MIC of PFOB & Partner: Partner concentration: 1 µg/mL
[3]; Enterococcus faecalis, ATCC29212, read-out: MIC (alone) of Partner
  MIC: 4 µg/mL
[4]; E. faecalis 5659 (vanA), PFOB 0.5 mg/L
  MIC of partner antibiotic in the presence of PFOB at 0.5 mg/L: >64 µg/mL
[4]; E. faecalis 5659 (vanA), PFOB 1 mg/L
  MIC of partner antibiotic in the presence of PFOB at 1 mg/L: >64 µg/mL
[4]; E. faecalis 5659 (vanA), PFOB 2 mg/L
  MIC of partner antibiotic in the presence of PFOB at 2 mg/L: >64 µg/mL
[4]; E. faecalis 5659 (vanA), PFOB 4 mg/L
  MIC of partner antibiotic in the presence of PFOB at 4 mg/L: >64 µg/mL
[4]; E. faecalis 5659 (vanA), PFOB 8 mg/L
  MIC of partner antibiotic in the presence of PFOB at 8 mg/L: >64 µg/mL
[4]; E. faecalis 5659 (vanA), PFOB 16 mg/L
  MIC of partner antibiotic in the presence of PFOB at 16 mg/L: >64 µg/mL
[4]; E. faecalis 5659 (vanA), PFOB 32 mg/L
  MIC of partner antibiotic in the presence of PFOB at 32 mg/L: >64 µg/mL
[4]; [6]
  MIC: > 64 µg/mL
[5]; E. faecalis ATCC 10541, PFOB 0.5 mg/L
  MIC of partner antibiotic in the presence of PFOB at 0.5 mg/L: 2 µg/mL
[5]; E. faecalis ATCC 10541, PFOB 1 mg/L
  MIC of partner antibiotic in the presence of PFOB at 1 mg/L: 2 µg/mL
[5]; E. faecalis ATCC 10541, PFOB 2 mg/L
  MIC of partner antibiotic in the presence of PFOB at 2 mg/L: 2 µg/mL
[5]; E. faecalis ATCC 10541, PFOB 4 mg/L
  MIC of partner antibiotic in the presence of PFOB at 4 mg/L: 2 µg/mL
[5]; E. faecalis ATCC 10541, PFOB 8 mg/L
  MIC of partner antibiotic in the presence of PFOB at 8 mg/L: 2 µg/mL
[5]; E. faecalis ATCC 10541, PFOB 16 mg/L
  MIC of partner antibiotic in the presence of PFOB at 16 mg/L: 1 µg/mL
[5]; E. faecalis ATCC 10541, PFOB 32 mg/L
  MIC of partner antibiotic in the presence of PFOB at 32 mg/L: 1 µg/mL
[5]; Enterococcus faecalis, ATCC10541, read-out: MIC (alone) of Partner
  MIC: 4 µg/mL
